Paper PMC7217877, “N-AS-triggered SPMs are direct regulators of microglia in a model of Alzheimer’s disease” (Nature Communications, 2020)
Several values for one entry are separate records, joined by “and”; a condition that tells them apart may be missing. Identical values can stand only once.

Columns and labels:
neuron = assay: acetyl-CoA level in primary cells (assay kit); type: cell-based, C57BL/6 mice; conditions: Ab 10mM, replicates
Procedure: To confirm the generation and roles of N-AS in neurons, cells from E18 C57BL/6 mice were prepared as previously described. Cortices were dissected and then dissociated followed by incubation in papain (Worthington) at 37 °C for 15 min. Neurons were plated on poly-L-lysine-coated coverslips with neuronal culture medium, serum-free Neurobasal medium (Gibco) containing 2% B27 supplements (Gibco), 1 mM Glutamax supplement (Gibco), and 100 U ml^−1 streptomycin/ 100 U ml^−1 penicillin (Gibco) at 37 °C in a humidified atmosphere of 5% CO2. […] Primary astrocyte cultures were prepared from C57BL/6 mice as described previously. In brief, after removal of the meninges, postnatal day 7 (P7) mouse brain tissues were minced and incubated in a rocking water bath at 37 °C for 30 min in the presence of 0.25% trypsin-EDTA (Sigma-Aldrich). Enzyme-digested dissociated cells were triturated with astrocyte-specific medium (DMEM/F12 containing 10% FBS and 1% penicillin-streptomycin) and centrifuged at 155×g for 8 min. The pellet was resuspended in astrocyte-specific medium and passed through a 40-μm cell strainer. […] The human microglia treated with Aβ 1–42 and/or zileuton was incubated with N-AS (2.5 μM, 2 h, Sigma-Aldrich, 01912), and were analyzed for the generation and roles of N-AS. […]

[1] = tissue concentrations at 24 h (brain, liver, kidney, heart; Supplementary Fig 3g); type: in vivo, C57BL/6 mice; parameters: Brain concentration (sFig 3g): unit not given here; conditions: for Heart concentration (sFig 3g) / Kidney concentration (sFig 3g) / Liver concentration (sFig 3g) / Brain concentration (sFig 3g): 24 h, individual animals
Procedure: C57BL/6 mice were administered N-AS (Sigma-Aldrich, 01912) at doses of 1 mg kg^−1 (i.v.) or 10 mg kg^−1 (p.o.). Venous blood samples were collected at 5, 15, and 30 min, and 1, 2, 4, 8, and 24 h postdose. A 30 μl of plasma was separated from whole blood by centrifugation and stored at −80 °C until analysis. Also, brain samples were collected at 1, 2, 4, and 24 h postdose and heart, liver, and kidney samples were collected at 24 h postdose, thoroughly rinsed with physiological saline and weighed. Twenty percentage of tissue homogenates were prepared by homogenizing the tissue samples with four volumes of saline. A 30 μl aliquot of plasma or a 50 μl aliquot of tissue homogenates were deproteinized by addition of 200 μl cold methanol (containing naringenin as internal standard at 20 ng ml^−1) and centrifuged at 15,974×g for 10 min. A 10 μl aliquot of the supernatant was injected into Agilent 6470 LC-MS/MS system. Separation was performed on a Synergy Polar RP column (4 μm particle size, 2.0 mm ×150 mm, Phenomenex) using a mobile phase that consisted of methanol and water (85:15, v/v) with 0.1% formic acid at a flow rate of 0.2 ml min^−1. Quantification was carried out using multiple reaction monitoring (MRM) at m/z 340.3→263.3 for N-AS and m/z 271.1→151.3 for naringenin (internal standard) in negative ionization mode and collision energy of 20 eV. p, and relative oral BA values were calculated as follows: BA% = AUCp.o. normalized by p.o. dose/AUCi.v. normalized by i.v. dose × 100.

In the case of “Ab: Aβ 1–42 (Invitrogen, 03112) used to induce an AD environment in cells”, the “acetyl-CoA (Fig 3e)” value (neuron) is reported as 0.1397 and 0.4178 and 0.62 and 0.7945 and 0.1176 and 0.7145.
With `CCCCCCCCCCCCC/C=C/[C@@H](O)[C@H](CO)NC(C)=O` [N-AS, N-((2S,3R,E)-1,3-Dihydroxyoctadec-4-en-2-yl)acetamide] the “tissue concentration of N-AS at 24 hours post administration, in words” value ([1]; brain vs liver, kidney, heart, i.v. 1 mg/kg or p.o. 10 mg/kg) was “brain showed the highest concentration of N-AS”, the “Heart concentration (sFig 3g)” value ([1]; i.v 1mg/kg) was 0 and the “Kidney concentration (sFig 3g)” value ([1]; i.v 1mg/kg) was 0. For the same compound, the “Liver concentration (sFig 3g)” value ([1]; i.v 1mg/kg) was 0, the “Brain concentration (sFig 3g)” value ([1]; i.v 1mg/kg, 1 mg/kg) was 13.15 and 12.57 and 8.38 and 7.48 and the “Heart concentration (sFig 3g)” value ([1]; p.o. 10mg/kg) was 0. For the same compound, the “Kidney concentration (sFig 3g)” value ([1]; p.o. 10mg/kg) was 0, the “Liver concentration (sFig 3g)” value ([1]; p.o. 10mg/kg) was 0 and the “Brain concentration (sFig 3g)” value ([1]; p.o. 10mg/kg, 10 mg/kg) was 20.2 and 32.76 and 11.3 and 29.06.
